Read-outs that look alike come from different tables or passages of the source.
What was measured:
Test in all cases: two-electrode voltage clamp, Xenopus oocytes
Type in all cases: cell-based
[1] = target: T1, human GluN1/GluN2A (Homo sapiens, UniProt Q05586+Q12879)
T1 construct: gene GRIN1; full open reading frames in pCI-neo, cRNA in Xenopus laevis oocytes; di-heteromeric tetramer
Excerpt: (§1) two-electrode voltage clamp, Xenopus oocytes on human GluN1/GluN2A

[2] = target: T2, human GluN1/GluN2A (Homo sapiens, UniProt Q05586+Q12879, Q12879:P552R)
T2 construct: gene GRIN1; full open reading frames in pCI-neo, cRNA in Xenopus laevis oocytes; di-heteromeric tetramer
T2 sequence (Q12879 23-1464 P552R, other chains not shown): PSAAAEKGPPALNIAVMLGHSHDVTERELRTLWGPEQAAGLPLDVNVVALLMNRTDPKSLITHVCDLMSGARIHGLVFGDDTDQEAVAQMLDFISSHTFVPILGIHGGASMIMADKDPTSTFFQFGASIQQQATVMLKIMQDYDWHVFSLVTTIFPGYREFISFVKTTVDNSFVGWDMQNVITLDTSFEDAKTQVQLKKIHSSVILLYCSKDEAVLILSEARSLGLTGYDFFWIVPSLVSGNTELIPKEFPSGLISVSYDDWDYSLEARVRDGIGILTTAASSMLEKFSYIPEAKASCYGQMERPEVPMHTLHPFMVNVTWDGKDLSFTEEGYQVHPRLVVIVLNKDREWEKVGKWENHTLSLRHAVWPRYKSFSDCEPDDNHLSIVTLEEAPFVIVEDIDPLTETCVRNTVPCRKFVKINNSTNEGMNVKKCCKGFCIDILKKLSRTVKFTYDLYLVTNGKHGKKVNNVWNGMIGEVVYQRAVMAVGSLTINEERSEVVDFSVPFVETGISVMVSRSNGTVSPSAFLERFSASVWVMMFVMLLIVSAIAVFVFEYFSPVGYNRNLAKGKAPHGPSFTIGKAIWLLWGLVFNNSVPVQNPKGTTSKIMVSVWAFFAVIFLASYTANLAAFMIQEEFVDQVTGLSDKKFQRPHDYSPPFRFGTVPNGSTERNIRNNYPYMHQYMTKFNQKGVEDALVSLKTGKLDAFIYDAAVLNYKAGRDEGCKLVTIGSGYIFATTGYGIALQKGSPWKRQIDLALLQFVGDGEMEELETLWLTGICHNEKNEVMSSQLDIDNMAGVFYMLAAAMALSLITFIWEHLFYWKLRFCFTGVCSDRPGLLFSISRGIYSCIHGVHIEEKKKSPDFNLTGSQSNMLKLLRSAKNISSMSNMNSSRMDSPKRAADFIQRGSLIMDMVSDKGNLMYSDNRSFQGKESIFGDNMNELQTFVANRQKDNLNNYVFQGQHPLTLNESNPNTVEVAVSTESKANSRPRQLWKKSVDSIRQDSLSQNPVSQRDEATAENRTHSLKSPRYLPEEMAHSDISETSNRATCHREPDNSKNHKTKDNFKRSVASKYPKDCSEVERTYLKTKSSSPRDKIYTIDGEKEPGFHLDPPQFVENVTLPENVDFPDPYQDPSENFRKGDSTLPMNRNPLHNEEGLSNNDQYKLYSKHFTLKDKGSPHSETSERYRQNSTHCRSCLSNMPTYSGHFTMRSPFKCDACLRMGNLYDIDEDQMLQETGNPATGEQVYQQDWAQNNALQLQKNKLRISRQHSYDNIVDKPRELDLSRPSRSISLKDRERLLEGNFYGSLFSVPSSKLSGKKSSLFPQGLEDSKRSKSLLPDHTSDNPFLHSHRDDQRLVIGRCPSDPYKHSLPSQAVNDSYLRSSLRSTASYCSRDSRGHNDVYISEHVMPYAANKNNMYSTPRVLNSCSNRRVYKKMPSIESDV
Excerpt: as §1

[3] = target: T3, rat GluN1/GluN2D (Rattus norvegicus, UniProt P35439+Q62645)
T3 construct: gene Grin1; full-length subunits in pCI-neo, cRNA in Xenopus laevis oocytes; di-heteromeric tetramer
Excerpt: two-electrode voltage clamp, Xenopus oocytes on rat GluN1/GluN2D

[4] = target: T4, human GluN1/GluN2B (Homo sapiens, UniProt Q05586+Q13224, Q05586:D552E)
T4 construct: gene GRIN1; full open reading frames in pCI-neo, cRNA in Xenopus laevis oocytes; di-heteromeric tetramer
Excerpt: (§2) two-electrode voltage clamp, Xenopus oocytes on human GluN1/GluN2B

[5] = target: T5, human GluN1/GluN2B (Homo sapiens, UniProt Q05586+Q13224, Q05586:P557R)
T5 construct: gene GRIN1; full open reading frames in pCI-neo, cRNA in Xenopus laevis oocytes; di-heteromeric tetramer
Excerpt: as §2

[6] = target: T6, human GluN1/GluN2B (Homo sapiens, UniProt Q05586+Q13224, Q13224:P553R)
T6 construct: gene GRIN1; full open reading frames in pCI-neo, cRNA in Xenopus laevis oocytes; di-heteromeric tetramer
T6 sequence (Q13224 27-1484 P553R, other chains not shown): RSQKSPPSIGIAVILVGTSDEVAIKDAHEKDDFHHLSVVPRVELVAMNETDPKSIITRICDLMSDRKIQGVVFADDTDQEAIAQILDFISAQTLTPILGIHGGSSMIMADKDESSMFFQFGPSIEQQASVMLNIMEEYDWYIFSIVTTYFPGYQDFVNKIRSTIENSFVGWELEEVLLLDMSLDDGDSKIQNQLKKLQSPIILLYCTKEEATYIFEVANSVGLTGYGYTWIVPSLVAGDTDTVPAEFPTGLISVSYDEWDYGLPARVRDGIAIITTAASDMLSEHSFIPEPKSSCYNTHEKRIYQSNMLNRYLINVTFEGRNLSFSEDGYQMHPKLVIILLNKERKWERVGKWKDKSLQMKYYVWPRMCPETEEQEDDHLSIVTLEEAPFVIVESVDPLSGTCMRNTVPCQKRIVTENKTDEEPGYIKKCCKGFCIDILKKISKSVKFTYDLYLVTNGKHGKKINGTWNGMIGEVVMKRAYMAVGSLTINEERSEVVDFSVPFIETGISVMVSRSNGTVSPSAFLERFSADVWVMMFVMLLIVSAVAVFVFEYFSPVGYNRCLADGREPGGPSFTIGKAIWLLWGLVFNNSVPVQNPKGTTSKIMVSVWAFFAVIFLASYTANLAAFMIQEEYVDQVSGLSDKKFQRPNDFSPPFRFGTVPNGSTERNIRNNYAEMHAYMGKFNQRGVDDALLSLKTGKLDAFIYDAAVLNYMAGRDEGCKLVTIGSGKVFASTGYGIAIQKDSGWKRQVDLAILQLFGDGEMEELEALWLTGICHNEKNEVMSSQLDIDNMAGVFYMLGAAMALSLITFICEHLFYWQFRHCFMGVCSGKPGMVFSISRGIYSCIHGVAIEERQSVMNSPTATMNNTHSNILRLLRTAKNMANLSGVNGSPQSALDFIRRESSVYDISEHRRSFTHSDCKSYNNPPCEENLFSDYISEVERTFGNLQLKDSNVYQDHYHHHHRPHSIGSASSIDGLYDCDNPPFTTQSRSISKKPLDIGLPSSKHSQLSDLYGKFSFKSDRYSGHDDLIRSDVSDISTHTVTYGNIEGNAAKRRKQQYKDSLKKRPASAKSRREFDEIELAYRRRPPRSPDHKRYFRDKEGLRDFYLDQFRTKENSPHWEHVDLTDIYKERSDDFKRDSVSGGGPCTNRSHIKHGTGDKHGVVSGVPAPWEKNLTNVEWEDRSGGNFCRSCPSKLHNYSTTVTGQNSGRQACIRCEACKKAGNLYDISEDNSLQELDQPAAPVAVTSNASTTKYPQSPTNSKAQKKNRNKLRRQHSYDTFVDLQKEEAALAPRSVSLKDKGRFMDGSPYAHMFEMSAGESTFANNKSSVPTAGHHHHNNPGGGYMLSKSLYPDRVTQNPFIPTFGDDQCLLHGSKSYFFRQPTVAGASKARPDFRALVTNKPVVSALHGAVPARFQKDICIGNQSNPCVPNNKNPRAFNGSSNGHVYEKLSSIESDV
Excerpt: as §2

[7] = target: T7, human GluN1/GluN2A (Homo sapiens, UniProt Q05586+Q12879, Q05586:D552E)
T7 construct: gene GRIN1; full open reading frames in pCI-neo, cRNA in Xenopus laevis oocytes; di-heteromeric tetramer
Excerpt: as §1

[8] = target: T8, human GluN1/GluN2A (Homo sapiens, UniProt Q05586+Q12879, Q05586:P557R)
T8 construct: gene GRIN1; full open reading frames in pCI-neo, cRNA in Xenopus laevis oocytes; di-heteromeric tetramer
Excerpt: as §1

[9] = target: T9, human GluN1/GluN2A (Homo sapiens, UniProt Q05586+Q12879, Q12879:A548T)
T9 construct: gene GRIN1; full open reading frames in pCI-neo, cRNA in Xenopus laevis oocytes; di-heteromeric tetramer
Excerpt: as §1

[10] = read-out: IC50 (n; max inhibition) / GluN2A-P552R

T1 sequence (Q12879 23-1464, other chains not shown): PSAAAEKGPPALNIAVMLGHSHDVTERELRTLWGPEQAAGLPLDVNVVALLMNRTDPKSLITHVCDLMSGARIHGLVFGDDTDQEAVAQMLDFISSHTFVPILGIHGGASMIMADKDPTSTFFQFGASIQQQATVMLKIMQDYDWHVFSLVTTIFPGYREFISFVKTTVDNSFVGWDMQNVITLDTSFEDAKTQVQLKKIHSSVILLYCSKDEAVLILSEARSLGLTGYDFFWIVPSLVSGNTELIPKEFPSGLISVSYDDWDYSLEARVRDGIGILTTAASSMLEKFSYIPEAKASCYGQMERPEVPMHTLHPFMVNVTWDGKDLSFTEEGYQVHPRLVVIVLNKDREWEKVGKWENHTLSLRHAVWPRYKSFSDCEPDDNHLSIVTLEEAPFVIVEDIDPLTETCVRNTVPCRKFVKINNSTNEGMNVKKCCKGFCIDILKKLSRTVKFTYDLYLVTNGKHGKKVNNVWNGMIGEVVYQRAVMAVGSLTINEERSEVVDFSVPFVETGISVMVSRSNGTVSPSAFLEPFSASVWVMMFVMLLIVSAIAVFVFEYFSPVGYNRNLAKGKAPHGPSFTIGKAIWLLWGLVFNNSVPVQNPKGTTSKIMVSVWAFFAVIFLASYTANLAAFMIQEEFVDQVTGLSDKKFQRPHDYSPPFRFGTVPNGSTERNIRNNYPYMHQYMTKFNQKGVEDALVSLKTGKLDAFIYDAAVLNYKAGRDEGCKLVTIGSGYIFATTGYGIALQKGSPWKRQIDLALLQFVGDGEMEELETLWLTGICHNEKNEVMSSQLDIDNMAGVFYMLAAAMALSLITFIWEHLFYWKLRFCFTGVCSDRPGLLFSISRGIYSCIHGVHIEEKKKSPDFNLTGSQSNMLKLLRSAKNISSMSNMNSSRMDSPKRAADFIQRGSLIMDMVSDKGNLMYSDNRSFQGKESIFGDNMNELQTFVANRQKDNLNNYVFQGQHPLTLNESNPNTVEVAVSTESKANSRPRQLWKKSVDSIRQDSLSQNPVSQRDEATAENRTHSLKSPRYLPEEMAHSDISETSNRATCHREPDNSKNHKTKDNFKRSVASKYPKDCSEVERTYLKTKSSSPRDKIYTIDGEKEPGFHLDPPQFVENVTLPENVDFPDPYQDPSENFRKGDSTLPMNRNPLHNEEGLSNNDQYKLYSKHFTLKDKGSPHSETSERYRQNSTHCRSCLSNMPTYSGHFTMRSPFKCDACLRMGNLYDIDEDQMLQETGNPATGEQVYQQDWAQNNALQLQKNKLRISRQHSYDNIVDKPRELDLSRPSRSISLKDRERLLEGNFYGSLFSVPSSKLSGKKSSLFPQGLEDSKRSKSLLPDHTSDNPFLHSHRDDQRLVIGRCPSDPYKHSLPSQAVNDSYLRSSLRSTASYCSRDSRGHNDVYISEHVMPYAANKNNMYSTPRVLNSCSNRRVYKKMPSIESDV

`CNC1(c2ccccc2Cl)CCCCC1=O` (stereo not drawn) [Ketamine] was tested, and the IC50 [1] was 4700 ± 800 nM and the IC50 [2] was 1300 ± 200 nM.

`NC12CC3CC(CC(C3)C1)C2` [Amantadine] was tested, and the IC50 ([1]; read-out: IC50 (n; max inhibition) / GluN2A-WT) was 126000 ± 17000 nM and the IC50 [2, 10] was 86000 ± 22000 nM.

`COc1ccc2c(c1)[C@]13CCCC[C@@H]1[C@H](C2)N(C)CC3` [Dextromethorphan] was tested, and the IC50 ([1]; channel blocker, -40 mV, pH 7.4, no Mg2+, 23 °C, read-out: IC50 (n; max inhibition) / GluN2A-WT) was 18000 ± 2900 nM and the IC50 [2, 10] was 15000 ± 4600 nM.

`N[C@@H](CCC(=O)O)C(=O)O` [Glutamate] was tested, and the EC50 [3] was 400 ± 70 nM.

Compound `NCC(=O)O` [Glycine] has an EC50 [4] of 660 ± 70 nM, an EC50 [5] of 70 ± 10 nM and an EC50 [6] of 50 ± 10 nM. It also gave an EC50 [1] of 1400 ± 140 nM, an EC50 [7] of 3700 ± 320 nM and an EC50 [8] of 180 ± 20 nM. It also gave an EC50 [9] of 2400 ± 90 nM and an EC50 ([2]; read-out: Di-heteromeric NMDA Receptors / GluN2A-P552R) of 60 ± 10 nM.

— article PMC5240934, “Molecular Mechanism of Disease-Associated Mutations in the Pre-M1 Helix of NMDA Receptors and Potential Rescue Pharmacology” (PLoS Genetics, 2017)
